{
  "source": "patent US5962533A",
  "about": "“Hydroxy polyamines” (priority 1996, dated 1999)",
  "key": {"[1]": {"assay": "Acute toxicity, single intraperitoneal injection", "details": "325 mg/kg intraperitoneal, five female CD-1 mice"}, "NMDA receptor": {"test_system": "NMDA receptor", "assay": "NMDA assay: specific [3H]MK-801 binding to washed rat cerebral cortical membranes", "details": "100 μm L-glutamate, 100 μm glycine, 2 nm [3H]MK-801", "from_the_text": "FIG. 4 depicts the effects of (HO)2 DEHSPM and DEHSPM on the NMDA receptor (MK-801 binding). Each data point represents the mean ±s.d. of three experiments. Each experiment was, in turn, performed in triplicate. \"100% activity\" is defined as the amount of specific MK-801 binding to washed rat cerebral cortical membranes in the presence of saturating concentrations of coagonists (100 μm L-glutamate, 100 μm glycine) and 2 nm [^3 H]MK-801.\nNMDA Assay. The procedure for measuring specific binding of [^3 H]MK-801 to the N-methyl-D-aspartate receptor complex was a modification of the method of Ransom and Stec [J. Neurochem., Vol. 51, pages 830-836 (1988)]. Cerebral cortices from young male Sprague-Dawley rats (200-300 g) were homogenized with 10 volumes ice-cold 0.32M sucrose using a motor-driven glass/Teflon homogenizer. The homogenate was centrifuged at 1,000 g for 10 minutes and the pellet was discarded. The supernatant was then centrifuged at 18,000 g for 20 minutes. The 18,000 g pellet was then resuspended in 10 volumes buffer A (5 mm Tris-HCl, pH 7.7) at 4° C., homogenized using high-intensity ultrasound and centrifuged at 8,000 for 20 minutes. The supernatant and upper buffy coat of the pellet were combined and centrifuged at 50,000 g for 20 minutes. The pellet was then resuspended in 10 volumes buffer A and homogenized using high-intensity ultrasound. These resuspended membranes were then centrifuged at 50,000 g, discarding the supernatant. The membranes were washed in this manner an additional three times and stored as a frozen suspension at -80° C. for at least 18 hours, but no longer than 2 weeks before use.\nFor binding experiments, frozen membranes were thawed, pelleted at 50,000 g for 20 minutes and washed as described above, except that 20 volumes of buffer A were used for resuspension, for a total of four times. The final pellet was resuspended in buffer B (5 mm Tris-HCl, pH 7.5) at 23° C. The binding assay mixture was 1.00 ml buffer B containing 200-300 μg membrane protein, 100 μm L-glutamate, 100 μm glycine, 2 nm [^3 H]MK-801 and tetraamine at the following concentrations: 0 (\"100%+L-glu,+gly-Control\") and 0.05, 0.1, 0.5, 1, 5, 10, 50, 100, 500 and 1,000 μm. Non-specific binding was determined using 100 μm MK-801.\nBinding assays were performed in triplicate at 23° C. for one hour and were terminated by filtration through Whatman GF/B glass fiber filters followed by three 4.0 ml rinses of ice-cold buffer B using a Brandel M-48 Cell Harvester."}, "[2]": {"test_system": "castor oil-induced diarrhea", "assay": "Castor oil-induced diarrhea", "type": "in vivo, rat", "from_the_text": "Castor Oil-Induced Diarrhea. Male Sprague-Dawley rats (350-400 g) were fasted overnight in hanging wire cages and allowed free access to water."}, "[3]": {"assay": "Metabolism of (HO)2 DEHSPM v. DEHSPM in mouse liver and kidney (HPLC)", "type": "in vivo", "experimental": "Metabolism of (HO)2 DEHSPM v. DEHSPM in Mouse Liver and Kidney. […] In ease case, animals were sacrificed for HPLC analysis one day after the final dose.\nHPLC Analysis of Polyamines. Various tissues including the liver and kidney were prepared for HPLC analysis of polyamine content. In order to facilitate their handling, the organs were submerged in liquid nitrogen. Once frozen and weighed, the tissues were homogenized (Tissuemizer, Tekmar, Cincinnati, Ohio) in 1.2N perchloric acid (containing 1,7-diaminoheptane internal standard) in a 1:20 (w/v) ratio. The tissue homogenates were then freeze-thawed three times and stored in a -70° C. freezer until HPLC analysis was performed.\nEach chromatographic assay included calibration standards which were treated in the same manner as the samples. […] The concentration of each polyamine was calculated from the peak area by calibration curves obtained by non-weighted least squares linear regression. Peak area and linear regression calculations were performed on a Macintosh Centris 650 with Rainin Dynamax HPLC Method Manager software (Rainin Instrument Co., Ridgefield, N.J.)."}, "[4]": {"test_system": "polyamine transport apparatus", "assay": "Competition with radiolabeled spermidine for uptake into L1210 cells (Ki)", "type": "cell-based, Murine", "details": "L1210 cells, estimated from Lineweaver-Burke plots, read-out: Ki, [3H]-spermidine transport", "experimental": "The same cell line was utilized to evaluate the tetraamines's competition with radiolabeled spermidine for the polyamine uptake apparatus (Ki). The Ki values here are the concentrations of drugs required to inhibit the uptake of radioactive spermidine transport by 50% (Table 1).\nUptake Determinations. The polyamine derivatives were studied for their ability to compete with [^3 H]SPD or [^14 C]SPD for uptake into L1210 leukemia cells in vitro. Cell suspensions were incubated in 1 ml of RPMI-1640 containing 1, 2, 4, 6, 8 and 10 μm radiolabeled SPD alone or with the additional presence of 10, 25 and 50 μm polyamine analogue for 20 minutes at 37° C. At the end of the incubation period, tubes were centrifuged at 900 g for 5 minutes at 0-4° C. The pellet was washed twice with 5 ml of cold RPMI-1640 containing 1 mm SPD, dissolved in 200 μl of 1N NaOH at 60° C. for 1 hour, and neutralized with 1N HCl. The material was transferred to a vial for scintillation counting."}, "[5]": {"assay": "Chronic toxicity, one dose per day for five days", "type": "in vivo", "experimental": "In the chronic toxicity regimen, mice were administered the polyamine analogue as one dose per day for five days. Appetite, weight and overall physical appearance were recorded at the time of each injection. After the treatment regimen had been completed, the animals were observed an additional 10 days. The chronic toxicity dosing regimen was set up so that at least one test group was presented with a high fraction of lethalities."}, "[6]": {"details": "24 h after regimen, normalized for 30 g mouse"}, "[7]": {"details": "liver and kidneys, 24 h after regimen, 30 g mouse"}, "[8]": {"details": "mouse, one day after subchronic equimolar i.p. regimen"}},
  "note": "Several values for one entry are separate records, joined by “and”; a condition that tells them apart may be missing. Equal values may be shown once. Where a name gives a salt, the structure may show the parent alone. Read-outs that look alike come from different tables or passages of the source.",
  "data": [
    {"smiles": "CCNCC[C@@H](O)CNCCCCNC[C@H](O)CCNCC", "note": "[(HO)2 DEHSPM, N^1,N^14 -Diethyl-3(R),12(R)-dihydroxyhomospermine tetrahydrochloride]", "values": [
      {"measurement": "deaths after single dose", "setting": "[1]", "value": "Three of the five animals died"},
      {"measurement": "concentration showing agonist activity on MK-801 binding", "setting": "NMDA receptor", "value": "0.5-1.0 μm"},
      {"measurement": "concentrations of maximal antagonism of MK-801 binding", "setting": "NMDA receptor", "value": "≥ 50", "unit": "μm"},
      {"measurement": "concentrations showing marked antagonist activity on MK-801 binding", "setting": "NMDA receptor", "value": "above 5 μm"},
      {"measurement": "prevention of castor oil-induced diarrhea", "setting": "[2]; 1 mg/kg, rat", "value": "not an effective anti-diarrheal agent"},
      {"measurement": "prevention of castor oil-induced diarrhea", "setting": "[2]; 2.5 mg/kg, rat, six hour observation", "value": "partially effective"},
      {"measurement": "prevention of castor oil-induced diarrhea", "setting": "[2]; 5 mg/kg subcutaneous, rat, six hour assay", "value": "as effective as DEHSPM at preventing diarrhea"},
      {"measurement": "prevention of castor oil-induced diarrhea", "setting": "[2]; 18 kg/mg, rat", "value": "effectively prevented the onset of diarrhea"},
      {"measurement": "minimal effective dose", "setting": "[2]; Rattus norvegicus, sc, read-out: minimum effective dose for prevention of diarrhea", "value": 5, "unit": "mg/kg"},
      {"measurement": "stool output / diarrhea during 6 hour assay (FIG. 8)", "setting": "[2]; subcutaneous injection 30 minutes before castor oil 5 ml/kg, rat", "value": "virtually no stool output"},
      {"measurement": "% of total dose present as total drug + metabolite, Kidneys", "setting": "[3]; [6]", "value": 4.04, "unit": "%"},
      {"measurement": "% of total dose present as total drug + metabolite, Liver", "setting": "[3]; [6]", "value": 5.96, "unit": "%"},
      {"measurement": "% of total dose present as unmetabolized parent drug, Kidneys", "setting": "[3]; [6]", "value": ".357 ± 0.34%"},
      {"measurement": "% of total dose present as unmetabolized parent drug, Liver", "setting": "[3]; [6]", "value": "3.39 ± 0.48", "unit": "%"},
      {"measurement": "Amount of total dose present as dideethylated metabolite HSPM/(HO)2 HSPM, Kidneys", "setting": "[3]; [6]", "value": 0.030, "unit": "µmol"},
      {"measurement": "Amount of total dose present as dideethylated metabolite HSPM/(HO)2 HSPM, Liver", "setting": "[3]; [6]", "value": 0.166, "unit": "µmol"},
      {"measurement": "Amount of total dose present as total drug + metabolite, Kidneys", "setting": "[3]; [6]", "value": 0.261, "unit": "µmol"},
      {"measurement": "Amount of total dose present as total drug + metabolite, Liver", "setting": "[3]; [6]", "value": 0.385, "unit": "µmol"},
      {"measurement": "Amount of total dose present as unmetabolized parent drug, Kidneys", "setting": "[3]; [6]", "value": 0.231, "unit": "µmol"},
      {"measurement": "Amount of total dose present as unmetabolized parent drug, Liver", "setting": "[3]; [6]", "value": 0.219, "unit": "µmol"},
      {"measurement": "% of total dose present as total drug + metabolite, Both Tissues", "setting": "[3]; [7]", "value": 10.01, "unit": "%"},
      {"measurement": "% of total dose present as unmetabolized parent drug, Both Tissues", "setting": "[3]; [7]", "value": 6.96, "unit": "%"},
      {"measurement": "Amount of total dose present as dideethylated metabolite HSPM/(HO)2 HSPM, Both Tissues", "setting": "[3]; [7]", "value": 0.196, "unit": "µmol"},
      {"measurement": "Amount of total dose present as total drug + metabolite, Both Tissues", "setting": "[3]; [7]", "value": 0.646, "unit": "µmol"},
      {"measurement": "Amount of total dose present as unmetabolized parent drug, Both Tissues", "setting": "[3]; [7]", "value": 0.450, "unit": "µmol"},
      {"measurement": "level of unchanged drug in kidney", "setting": "[3]; [8]", "value": "481±46", "unit": "nmol/g wet weight"},
      {"measurement": "level of unchanged drug in liver", "setting": "[3]; [8]", "value": "83.6±11.7 nmol/g wet weight and 84±12 nmol/g wet weight"},
      {"measurement": "Ki", "setting": "[4]; listed as (OH)2 -DEHSPM", "value": 1.8, "unit": "µM"},
      {"measurement": "Ki", "setting": "[4]", "value": "2 µM and 1.8 µM"},
      {"measurement": "# deaths/# animals", "setting": "[5]; 70 mg/kg per day×5 days", "value": "0/5"},
      {"measurement": "# deaths/# animals", "setting": "[5]; 80 mg/kg per day×5 days", "value": "0/5"},
      {"measurement": "# deaths/# animals", "setting": "[5]; 90 mg/kg per day×5 days", "value": "0/10"},
      {"measurement": "# deaths/# animals", "setting": "[5]; 100 mg/kg per day×5 days", "value": "1/5"},
      {"measurement": "# deaths/# animals", "setting": "[5]; 120 mg/kg per day×5 days", "value": "2/5"},
      {"measurement": "deaths", "setting": "[5]; 20, 40 and 60 mg/kg per day×5 days, groups of six animals", "value": "No deaths"},
      {"measurement": "LD40", "setting": "[5]; mice", "value": 120, "unit": "mg/kg per day×5 days"},
      {"measurement": "necropsy conclusion in severely affected animals", "setting": "[5]; mouse, in vivo", "value": "potently blocks gastric transport"},
      {"measurement": "LD50", "setting": "[5]; mouse, in vivo, mice, subchronic regimen, read-out: LD50 estimated from the slope of the toxicity curve", "value": 130, "unit": "mg/kg"}
    ]}
  ]
}
